Results on seven compounds are retold here after ChEMBL document CHEMBL1201862, “PubChem BioAssay data set” (2004).

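1) Cells in 96-well plates. 2) Compound, 48 h, 5 concentrations. 3) Linear interpolation between surrounding doses. 4) Unreached endpoint = highest concentration. At the GI50, growth is halved.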 The source made the active and inactive calls. Cut-off read from the data, not from the text of the source: active = GI50 up to about 1.1 µM and inactive = higher.

Among the test systems are ACHN; CAKI-1; HCC 2998; HCT-15; HT-29; Hs-578T; KM12; M14; MDA-MB-231; Malme-3M; NCI-H23; NCI/ADR-RES; OVCAR-5; PC-3; RPMI-8226; SF-539; SK-MEL-28; SK-OV-3; SNB-19; UACC-257.
What all share (assay): NCI anticancer screen, dose series, 48 h

`CC(=O)NC1C(O)C(O)C(CO)OC1n1ncc(=O)[nH]c1=O` (stereo not given): the GI50 in the experiment with ACHN was > 100 µM (inactive); in the experiment on CAKI-1, > 100 µM (inactive); in the experiment on HCC 2998 it was > 100 µM (inactive); in the experiment with HCT-15 it was over 100 µM; in the experiment on HT-29 it was > 100 µM (inactive); in the experiment on Hs-578T, > 100 µM (inactive). Also, the GI50 with KM12, in the experiment on M14, in the experiment on MDA-MB-231, in the experiment on Malme-3M, in the experiment with NCI-H23 and in the experiment with NCI/ADR-RES was > 100 µM (inactive) throughout. The GI50 in the experiment with OVCAR-5, in the experiment on PC-3, with RPMI-8226, with SF-539, in the experiment with SK-MEL-28 and in the experiment with SK-OV-3 was > 100 µM (inactive) in each case. Besides, the GI50 in the experiment with SNB-19 and in the experiment on UACC-257 was > 100 µM (inactive) throughout.
As to `COc1ccc(/C(=N/O)c2ccccc2C2=Nc3ccccc3C(NCc3ccccc3)O2)cc1C` (stereo not given), the GI50 with ACHN is 38 µM (inactive); in the experiment with CAKI-1, 56.2 µM (inactive); with HCC 2998 it was 20.9 µM (inactive); with HCT-15, 30.3 µM; in the experiment on HT-29 it was 25.1 µM (inactive); with Hs-578T it was 40.8 µM (inactive). The GI50 is 46.2 µM (inactive) in the experiment on KM12; 39.4 µM (inactive) in the experiment on M14; 32.7 µM (inactive) in the experiment on MDA-MB-231; 18.6 µM (inactive) with Malme-3M; > 100 µM (inactive) in the experiment on NCI-H23; 41.8 µM (inactive) with NCI/ADR-RES. In addition, the GI50 is 33.8 µM (inactive) with OVCAR-5; 17.3 µM (inactive) with PC-3; 26.2 µM (inactive) with RPMI-8226; 96.2 µM (inactive) with SF-539; 44.1 µM (inactive) with SK-MEL-28; 21.2 µM (inactive) with SK-OV-3. Further, the results for the GI50 in the experiment with SNB-19 and with UACC-257 were 36.6 µM (inactive) and 12.9 µM (inactive), respectively.
`COC1CC(OC2C(C)OC(OC3C(C)OC(OC4C(C)OC(O[C@H]5CC[C@@]6(C)C(=CC[C@]7(O)[C@@H]6C[C@@H](O)[C@@]6(C)[C@]7(O)CC[C@@]6(O)C(C)=O)C5)CC4OC)CC3OC)CC2OC)OC(C)C1O` (stereo not given in full): the GI50 in the experiment with ACHN is > 12.5 µM (inactive); in the experiment with CAKI-1, > 12.5 µM (inactive); with HCC 2998 it was > 12.5 µM (inactive); in the experiment on HCT-15 it was over 12.5 µM; with HT-29, > 12.5 µM (inactive); with Hs-578T, > 12.5 µM (inactive). The GI50 with KM12, in the experiment on M14, with MDA-MB-231, in the experiment with Malme-3M, in the experiment on NCI-H23 and with NCI/ADR-RES was > 12.5 µM (inactive) each time. The GI50 in the experiment with OVCAR-5, with PC-3, in the experiment on RPMI-8226, in the experiment with SF-539, with SK-MEL-28 and in the experiment with SK-OV-3 was > 12.5 µM (inactive) throughout. For the same compound, the GI50 in the experiment on SNB-19 and in the experiment with UACC-257 was > 12.5 µM (inactive) throughout.
For the compound `CCC#CCCCCCCCCC(F)C(=O)O` (stereo not given), the GI50 with ACHN was > 100 µM (inactive); in the experiment with CAKI-1 it was > 100 µM (inactive); in the experiment on HCC 2998, > 100 µM (inactive); with HCT-15 it was over 100 µM; in the experiment with HT-29 it was > 100 µM (inactive); with Hs-578T it was > 100 µM (inactive). Further, the GI50 in the experiment with KM12, in the experiment with M14, in the experiment with MDA-MB-231, in the experiment with Malme-3M, in the experiment on NCI-H23 and in the experiment with NCI/ADR-RES was > 100 µM (inactive) in each case. The GI50 with OVCAR-5, in the experiment on PC-3, in the experiment on RPMI-8226, in the experiment on SF-539, in the experiment with SK-MEL-28 and in the experiment on SK-OV-3 was > 100 µM (inactive) each time. The GI50 in the experiment on SNB-19 and in the experiment with UACC-257 was > 100 µM (inactive) in each case.
As to `Cc1cc(N(CC(C)Br)CC(C)Br)ccc1/N=N/c1ccccc1C(=O)O` (stereo not given), the GI50 in the experiment with ACHN was 2.79 µM (inactive); with CAKI-1 it was 2.49 µM (inactive); with HCC 2998, 1.15 µM (inactive); with HCT-15, 8.81 µM; with HT-29, 4.85 µM (inactive); in the experiment with Hs-578T, 11.1 µM (inactive). Further, the GI50 is 13.4 µM (inactive) in the experiment on KM12; 6.04 µM (inactive) in the experiment on M14; 14.8 µM (inactive) with MDA-MB-231; 4.61 µM (inactive) in the experiment with Malme-3M; 3.81 µM (inactive) with NCI-H23; 15.2 µM (inactive) with NCI/ADR-RES. Further, the GI50 in the experiment with OVCAR-5 was 2.74 µM (inactive); in the experiment on PC-3, 12.9 µM (inactive); in the experiment on RPMI-8226, 1.75 µM (inactive); in the experiment with SF-539 it was 1.45 µM (inactive); in the experiment on SK-MEL-28, 1.93 µM (inactive); with SK-OV-3 it was 13.1 µM (inactive). The GI50 in the experiment on SNB-19 is 9.04 µM (inactive); in the experiment with UACC-257, 4.53 µM (inactive).
In the case of `Cc1ccn2c(=O)cc(CN3CCOCC3)nc2c1`, the GI50 was > 100 µM (inactive) in the experiment on ACHN; > 100 µM (inactive) in the experiment with CAKI-1; > 100 µM (inactive) in the experiment with HCC 2998; over 100 µM in the experiment with HCT-15; > 100 µM (inactive) in the experiment on HT-29; > 100 µM (inactive) in the experiment with Hs-578T. For the same compound, the GI50 in the experiment with KM12, in the experiment with M14, in the experiment on MDA-MB-231, with Malme-3M, with NCI-H23 and in the experiment with NCI/ADR-RES was > 100 µM (inactive) throughout. Besides, the GI50 in the experiment on OVCAR-5, with PC-3, in the experiment on RPMI-8226, in the experiment on SF-539, in the experiment with SK-MEL-28 and in the experiment with SK-OV-3 was > 100 µM (inactive) each time. Also, the GI50 in the experiment on SNB-19 and with UACC-257 was > 100 µM (inactive) each time.
Regarding `CC1Cc2cc(O)ccc2C2[C@@H]1C1CC[C@H](O)[C@@]1(C)C[C@@H]2O[N+](=O)[O-]` (stereo not given in full), the GI50 is 14.7 µM (inactive) in the experiment on ACHN; 10.2 µM (inactive) with CAKI-1; 5.48 µM (inactive) in the experiment on HCC 2998; 5.18 µM in the experiment with HCT-15; 16 µM (inactive) with HT-29; 3.21 µM (inactive) in the experiment with Hs-578T. In addition, the GI50 in the experiment with KM12 is 19.7 µM (inactive); in the experiment on M14, 6.15 µM (inactive); with MDA-MB-231 it was 12.1 µM (inactive); with Malme-3M, 10.7 µM (inactive); with NCI-H23, 12 µM (inactive); with NCI/ADR-RES, 3.82 µM (inactive). Also, the GI50 in the experiment with OVCAR-5 is 33.4 µM (inactive); in the experiment on PC-3 it was 20.1 µM (inactive); in the experiment with RPMI-8226 it was 5.64 µM (inactive); in the experiment on SF-539, 3.79 µM (inactive); with SK-MEL-28, 17.5 µM (inactive); in the experiment with SK-OV-3, 19.6 µM (inactive). Besides, the GI50 in the experiment with SNB-19 is 9.68 µM (inactive); in the experiment on UACC-257, 13 µM (inactive).
